Data: patent US20150198612A1, “Isotopic Labelling of Proteins” (UNIVERSITY OF DUNDEE, priority 2012, published 2015)

Key:
[1] = test system: inflammation related proteins; assay: LC-MS/MS of lung proteins after LPS treatment (Example 3); type: in vivo; details: male C57BL/6 mice, single i.p. injection 100 μg, lung 24 hours after dosing
Experimental: Male C57BL/6 mice were given a single intraperitoneal injection of lipopolysaccharide (LPS; 100 μg) or vehicle and tissues were harvested 24 hours after dosing. Lung tissues were lysed in 2% SDS buffer by ultrasonic probe and proteins extracted were resolved onto a SDS-PAGE, followed by a filter assisted trypsin digestion procedure. The protein digests were analysed by LC-MS/MS and the data were analysed using Peaks software for database search and Progenesis for quantification.

[2] = test system: drug metabolism enzymes; details: mouse, in vivo
[3] = test system: Cyp2B10; assay: SILAM LC-MS/MS quantification of Cyp2B10 in mouse liver (Example 2); details: for L/H ratio of Cyp2B10 peptide NLQELLDYIGHSVEK: mice treated 1 mg/kg
Experimental: This experiment was conducted to test the utility of the drug metabolism-enhanced reference in an actual SILAM protocol in comparison to normal SILAM protocol.
Liver protein extracts from wild type mice treated with TCPOBOP (1 mg/kg) or Ethoxyquin (1 mg/kg) or corn oil (control) were spiked with liver heavy protein extract from normal SILAM mice or drug metabolism pathway-enhanced SILAM mice according to the present invention.

[4] = test system: drug metabolism related proteins; assay: LC-MS/MS protein expression profile of liver from induced mice (Example 1); type: in vivo; details: wild type mice liver; once daily i.p. for 3 days; TCPOBOP 1 mg/kg; versus corn oil; FIG. 3
Experimental: In order to generate a drug metabolism-enhanced SILAC model, the protein expression profiles of liver from animals induced with TCPOBOP (1 mg/kg) or pregnenolone 16α-carbonitrile (PCN) or vehicle were examined. […] Animals were sacrificed 3 days after dosing, liver tissue excised and snap-frozen in liquid nitrogen for storage at −80° C.
Frozen liver tissue was thawed by addition of 10 volumes SDT lysis buffer (4% SDS, 0.1M DTT, 100 mM Tris-HCl pH 7.6) then homogenised by rotor-stator (2×5 sec at 20 k revolutions). Homogenate was heated to 95° C. for 5 minutes, sonicated (2×5 sec), then centrifuged at 16,000×g for 10 minutes. Supernatant (protein sample for analysis) was removed, aliquoted and stored at −80° C. until use. Protein samples (total of 30 μg/well) were electrophoresed through a 12% bis-tris gel in MOPS running buffer supplemented with antioxidant (all Life Technologies, Paisley, UK) alongside a Spectra multicolour broad range protein ladder (Thermo Fisher Scientific, Waltham, Mass.). Gels were stained with coomassie blue, destained, and then rehydrated with Milli-Q water. […] Peptide sample concentration was determined by Nanodrop (Thermo Fisher Scientific) and adjusted to 0.2 mg/mL in water containing 0.1% (vol/vol) trifluoroacetic acid. […] Data were analysed using SIEVE software in conjunction with Mascot database search engine. […]

[5] = test system: Cyp4a; assay: Western blot of liver drug metabolism enzymes, Cyp4a; details: C57BL/6 mice liver, once daily i.p. for 3 days, single inducer
[6] = test system: Cyp3a; details: mouse, in vivo, ip

Compound	number of inflammation related proteins in the lung that can be quantified using the enhanced SILAM [1]	induction of the lung proteins listed in Table 4 ([1]; versus vehicle)	expression of proteins examined [2]	Cyp2B10 expression relative to Ethoxyquin ([3]; from L/H ratios, pathway-enhanced SILAM)	levels of the low-abundance cytochrome protein Cyp2B10 ([3]; general statement)	L/H ratio of Cyp2B10 peptide NLQELLDYIGHSVEK ([3]; liver extract spiked with drug metabolism pathway-enhanced SILAM heavy liver extract, control L/H=0)	L/H ratio of Cyp2B10 peptide NLQELLDYIGHSVEK ([3]; liver extract spiked with normal SILAM heavy extract (no heavy peptide signal))	expression of drug metabolism related proteins relative to the total ion current [4]	Cyp4a expression [5]	Cyp3a protein expression [6]	change to other Cyp proteins examined (other than Cyp3a) ([2]; ip)
lipopolysaccharide [LPS]	more than 100	more than 5 times									
Clc1cnc(Oc2ccc(Oc3ncc(Cl)cc3Cl)cc2)c(Cl)c1 [TCPOBOP]			enhanced significantly the expression of many proteins examined except for Cyp2e and Homx1	4 fold	efficiently increase levels	2.50	infinite	significantly increased the expression of many of these proteins	moderate		
CC(=O)[C@H]1[C@H](C#N)C[C@H]2[C@@H]3CC=C4C[C@@H](O)CC[C@]4(C)[C@H]3CC[C@@]21C [PCN, pregnenolone 16α-carbonitrile]								to a lesser extent, PCN, significantly increased the expression of many of these proteins		noticeable	no change
